This assay relates to human breast cancer cell line MCF-7 xenografts. Kind of assay: MCF-7 xenograft growth inhibition in nude mice. It is filed as in vivo. Particulars: 20 mg/kg i.p. once daily. As for the experimental part: All the procedures related to animal handling, care, and the treatment in the study were performed following guidelines approved by an Institutional Animal Care and Use Committee (IACUC) of Crown Bioscience, Inc. (Santa Clara, Calif., USA, a contract research organization we hired) based on the guidance of the Association for Assessment and Accreditation of Laboratory Animal Care (AAALAC). Animals were checked for any effects of tumor growth and drug treatment on normal behavior such as mobility, food and water consumption, body weight gain/loss (gross body weights were measured twice weekly), eye/hair matting, and any other abnormal effect. Death and observed clinical signs were recorded on the basis of the number of animals within each group. Individual animals with a tumor volume exceeding 3,000 mm^3 or animals of a group with a mean tumor volume exceeding 2,000 mm^3 were euthanized. […]
Tumor volume was measured twice weekly in two dimensions using a caliper and the volume was calculated with a formula of: V=0.5 a×b^2, where a and b are the long and short diameter (in mm) of a tumor, respectively. […] The TGD was calculated as: TGD=T−C, where T was the time (in days) required for tumors in a drug treated group to reach a predetermined mean tumor volume and C the time (in days) in the control group to reach the same volume. […]

The structures appear in SMILES notation.

Turning to `COC(=O)c1csc(C(=O)c2c[nH]c3ccccc23)n1` [ITE, 2-(1′H-indole-3′-carbonyl)-thiazole-4-carboxylic acid methyl ester], the “TGD (Tumor Growth Delay)” value (at a tumor volume of 500 mm^3) turned out to be 3 days. The “TGI (Tumor Growth Inhibition)” value (day 19, TGI=ΔT/ΔC×100%) stood at 71%.

The values are drawn from US10632106B2, “Methods of cancer treatment with 2-(1′H-Indole-3′-carbonyl)-thiazole-4-carboxylic acid methyl ester” (Ariagen, Inc., priority 2009, dated 2020).
